# Laboratory results reported in patent US20190292246A1, “COMBINATION THERAPY OF A CELL BASED THERAPY AND A MICROGLIA IMHIBITOR” (JUNO THERAPEUTICS, INC., priority 2016, published 2019).
# Assay: Non-human primate combination therapy: PLX3397, CD20 CAR T cells and cyclophosphamide preconditioning
# Assay type: in vivo
# Details: PLX3397 40 mg/kg twice daily from 30 days before to 21 days after cells; Rhesus macaques
# Procedure: Animal subjects of the non-human primate (NHP), Macaca mulatta, which in aspects closely recapitulates the human immune system are administered cell therapy (T cells expressing a CAR targeting CD20), following administration of an agent to ameliorate toxicity. Thirty days prior to the initiation of cell therapy, T cells are isolated from peripheral blood of Rhesus macaques (n=3) and engineered via transduction with a viral vector encoding a CD20 chimeric antigen receptor (CAR), which is a tumor-associated or tumor-specific antigen, and optionally a detectable marker, such as GFP. […]
# After preconditioning treatment, subjects receive a first dose of CAR-expressing cells by infusion that is less than or equal to about 1×10^7 cells/kg body weight at day 0. […] Optionally, at seven days after the administration of the of cells, the CAR-expressing cells are detected by flow cytometry and quantitative polymerase chain reaction (qPCR) to measure in vivo proliferation and persistence of the administered cells and B cell aplasia. […] Recipient animals are monitored for clinical signs and symptoms of one or more toxic outcomes or toxicities such as CRS and neurotoxicity, and data are collected longitudinally to determine CAR T cell expansion and persistence, B cell aplasia, as well as clinical labs of CRS and cytokine levels. […]
structure (smiles),measurement,value
"FC(F)(F)c1ccc(CNc2ccc(Cc3c[nH]c4ncc(Cl)cc34)cn2)cn1 [PLX3397, 5-((5-chloro-1H-pyrrolo[2,3-b]pyridin-3-yl)methyl)-N-((6-(trifluoromethyl)pyridin-3-yl)methyl)pyridin-2-amine]","symptoms of toxicity (CRS, neurotoxicity) after CAR T cell therapy",reduced or prevented
